# Measured values taken from patent EP0385952A2, “Use of a naphthalenmethanamino derivative as antiinflammatory agent and pharmaceutical compositions containing it” (SANDOZ AG, priority 1989, dated 1990).
# Where two headings read alike, the source gives them in different places. Marks after values point to notes of the source that are not given here.
# Columns and labels:
# [1] = Solubility in water; type: physicochemical; settings: at 25°C
# [2] = target: T1, 5-lipoxygenase (Homo sapiens, UniProt P09917); assay: 5-lipoxygenase inhibition (neutrophil functions); type: cell-based; settings: read-out: IC₅₀ for 5-lipoxygenase
# T1 construct: endogenous in cells
# T1 sequence (P09917 1-674): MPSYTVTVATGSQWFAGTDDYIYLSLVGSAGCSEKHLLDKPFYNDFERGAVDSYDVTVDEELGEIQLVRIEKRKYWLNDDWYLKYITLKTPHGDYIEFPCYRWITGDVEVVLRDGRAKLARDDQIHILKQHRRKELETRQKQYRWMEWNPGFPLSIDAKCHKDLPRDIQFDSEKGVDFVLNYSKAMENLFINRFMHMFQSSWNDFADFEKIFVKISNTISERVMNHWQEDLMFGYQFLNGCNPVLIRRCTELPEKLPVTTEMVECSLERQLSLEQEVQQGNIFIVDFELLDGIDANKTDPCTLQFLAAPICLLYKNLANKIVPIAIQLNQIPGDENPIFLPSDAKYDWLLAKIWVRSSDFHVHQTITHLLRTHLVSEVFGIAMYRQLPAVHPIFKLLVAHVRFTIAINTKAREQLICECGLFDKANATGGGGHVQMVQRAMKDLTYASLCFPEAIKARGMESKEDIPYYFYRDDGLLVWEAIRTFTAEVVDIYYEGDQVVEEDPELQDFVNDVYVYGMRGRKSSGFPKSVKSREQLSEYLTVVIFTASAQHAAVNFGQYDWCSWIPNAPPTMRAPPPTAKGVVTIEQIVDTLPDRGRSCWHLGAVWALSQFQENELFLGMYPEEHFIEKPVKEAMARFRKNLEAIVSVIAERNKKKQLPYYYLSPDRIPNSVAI
# [3] = tested on: NMRI mice; assay: Cantharidin-induced pinnal swelling in mice (irritant contact dermatitis, 2.1.1.); type: in vivo; settings: epicutaneous, pinnal weight
# Procedure: (§1) Skin irritation with arachidonic acid or cantharidin is often used to experimentally induce inflammation in order to evaluate the anti-inflammatory activity of a compound [see e.g. Inflammation 8 (1984) 134-135; 10 (1986) 205-214]. NMRI mice (8 animals per group) receive 10 µl of a 10 % solution of arachidonic acid [J.M. Young et al., J. Invest. Derm. 82 (1986) 367-371] in acetone or, respectively, 0.08 % cantharidin [K.E. Swingle et al., Arch. Int. Pharmacodyn. Ther. 254 (1981) 168-176] in acetone applied to the medial and lateral surface of the right external ear. Treatment is performed either prophylactically 30 minutes before irritation (arachidonic acid) or, respectively, either simultaneously with the application of irritant solution or therapeutically 20 minutes after irritation (cantharidin), by a single epicutaneous application of the test compound dissolved in a mixture of N,N-dimethylacetamide, acetone and alcohol (2:2:4). The evaluation of the test group is effected by comparison with a control group of animals having received on the right ear lobe only the carrier substance or the irritant solution. The animals are killed 1.5 hours (arachidonic acid) or, respectively, 17 hours (cantharidin) after application of the irritant and efficacy in assessed by determination of the differences in auricular weight. Differences in weights (D) of right (involved) and left (uninvolved) pinnae of animals treated with test compound and arachidonic acid or cantharidin (T-group) are compared with differences in mice treated with arachidonic acid only or cantharidin only (C-group). Efficacy (%) is calculated according to the equation: [formula]
# [4] = tested on: HACAT cell line; assay: Modulation of keratinocyte gene expression and NAP1/IL-8 protein release; type: cell-based, human; settings: for inhibition at 10 µM: Homo sapiens, HaCaT, ELISA
# Procedure: The HACAT cell line is grown in 200 ml culture flasks in KGM medium (Clonetics) at 0.06 mM Ca until 50 % confluency. Thereafter cells are starved in KBM medium (Clonetics) for 2 days. The resulting preconfluent cells are then stimulated with αTNF (Genzyme, 500 or 1000 U/ml) or IL-1α (Boehringer, 200 U/ml) obtained from stock solutions and further diluted in KBM medium for the indicated times in the presence of test substance. At the end of the incubation period total cellular RNA is extracted as described above under 1.1.5. 20 µg RNA is run on 1 % formaldehyde agarose gels and transferred onto hybond N filters (Amersham) in a northern capillary transfer using 20xSSC. The filters are then baked for 2 hours and prehybridized for 4 hours. Hybridization (16 hours) and washing are performed at 65°C using oligonucleotide probes for NAP1/IL-8. For control, blots are rehybridised with an actin probe (Oncor). Concentrations of NAP1/IL-8 in the supernatants of the keratinocyte cultures are determined using a solid phase double ligand ELISA.
# [5] = tested on: mice; assay: TPA-induced pinnal swelling in mice (irritant contact dermatitis, 2.1.2.); type: in vivo; settings: therapeutic, topical, pinnal weight after 6 hours
# Procedure: as §1
# This model is similar to the above (see 2.1.1.). Skin inflammation is induced with 15 µl of 0.23 % croton oil in a mixture of dimethylacetamide, acetone and ethanol (2:4:4), or with 10 µl of 0.005 % TPA [12-O-tetradecanoylphorbol-13-acetate; Sigma] prepared in acetone with 0.5 % dimethylsulfoxide. Topical treatment is performed either simultaneously with the irritation (croton oil) or 20 minutes after the application (TPA). The test compound is prepared in DAE. Efficacy is assessed 6 hours after onset of irritation by determination of the auricular weight as described above.
# [6] = tested on: Peritoneal exudate cells of NMRI mice (macrophage population); assay: TPA-induced prostaglandin E₂ (PGE₂) release; type: cell-based; settings: Mus musculus, TPA 20 ng/ml, 1h, read-out: IC₅₀ for the inhibition of TPA-induced PGE₂ release
# Procedure: Peritoneal exudate cells of NMRI mice (strain NMRI) pretreated with 1.5 ml thioglycollate ip 3 days previously are harvested by peritoneal lavage, washed in phosphate-buffered saline (PBS without Ca⁺⁺ and Mg⁺⁺) and resuspended in DMEM medium supplemented with 10 % fetal calf serum (FCS). 1x10⁶ cells in 1 ml are placed into wells of Costar-24 tissue culture plates and cells are allowed to adhere for 24 hours at 37°C and 5 % CO₂. Cells are then washed twice with PBS and the remaining, more than 95 % pure macrophage population is stimulated with 12-O-tetradecanoylphorbol-13-acetate (TPA) (20 ng/ml, 1h) in DMEM medium without FCS. Conditioned media are centrifuged and PGE₂ levels are determined using a ¹²⁵I radioimmunoassay. Samples are assayed in duplicate. Inhibition of PGE₂ release by test compounds is calculated as percent inhibition compared to the controls.
smiles,measurement,setting,value
"CN(C/C=C/c1ccc(O)cc1)Cc1cccc2ccccc12 [compound of the invention, (E)-N-methyl-N-[3-(4-hydroxyphenyl)-2-propenyl]-1-naphthalene-methanamine]",solubility,[1],< 100 µg/mL
same,IC50,[2],44 µM
same,Efficacy (%),"[3]; simultaneous, test concentration 1.2 %",26%
same,Efficacy (%),"[3]; simultaneous, test concentration 3.6 %",52** %
same,Efficacy (%),"[3]; therapeutic, test concentration 1.2 %",25%
same,Efficacy (%),"[3]; therapeutic, test concentration 3.6 %",50** %
same,inhibition at 10 µM,[4]; read-out: inhibition of IL-1α-stimulated release of NAP1/IL-8,40%
same,inhibition at 10 µM,[4]; read-out: inhibition of αTNF-stimulated release of NAP1/IL-8,90%
same,αTNF-induced NAP1/IL-8 mRNA accumulation decreased to,"[4]; remaining level, 20.0 µM",60%
same,Efficacy (%),[5]; test concentration 1.2 %,51%
same,Efficacy (%),[5]; test concentration 3.6 %,60*** %
same,IC50,[6],1 to 3 µM
